Starred links: 1 amine or outer side, 2 acyl side, 3 side chain; linkers in the order of their positions; H or OH if unused. Residues, ends and D or L forms follow the SMILES beside them. Glutaryl = O=C(CCCC(=O)[*:2])[*:1]
In the case of `CCNC(=O)C1CCCN1C(=O)C(C)NC(=O)C(C)NC(=O)CCCC(=O)O` (stereo not drawn) (Glutaryl-Ala-Ala-Pro-NHEt; configuration not given here), the melting point is reported as 154 to 156 °C.
Molecule `CC1OC(O)CC(NC(=O)C(F)(F)F)C1(C)O` (centres undefined) has a melting point of 110 to 111 °C.
Molecule `O=C(CSc1nc2ccccc2[nH]1)c1ccc2[nH]c3ncc(Cl)cc3c2c1` has a melting point of 209 to 210 °C.
`COCOc1cccc(COc2cc3c(cc2-c2cc(C=CC(=O)O)ccc2OC)C(C)(C)CCC3(C)C)c1` gave a melting point of 144 to 146 °C.
Work on `CC1CCc2ncc(C(N)=O)c(=O)n21` (centres undefined) yielded a melting point of 191 °C.
Molecule `O=c1c2c(oc3c1nnn3Cc1ccccc1)CCS2` has a melting point of 157 to 160 °C.
`O=C(O)c1ccc(NCCc2cccs2)cc1` gave a melting point of 161 to 163 °C.
For `CCOC(=O)c1ccc(N)c(OCC#N)c1`, the melting point was 140 to 142 °C.
`CSc1ccc([C@@H](CC2CCCC2)C(=O)O)cc1Cl` showed a melting point of 117 to 119 °C.
`CCS(=O)(=O)c1ccc(-c2coc3ccc(-c4nnc(C)o4)cc23)cc1` gave a melting point of 180 to 181 °C.
`COc1ccc2c(c1)c(CC(=O)O)c(C)n2C(=O)c1ccccc1` showed a melting point of 158 to 160 °C.
`CC(=O)Nc1nc2ccccc2c2c(CC(C)C)n(C)nc12` showed a melting point of 130 to 131 °C.
`ClCc1ccccc1COc1ccc(C=Cc2ccc3ccccc3n2)cc1` showed a melting point of 127 to 128 °C.
`CCOC(=O)C1(N)N=C(c2ccccc2Cl)c2cc(CC)sc2-n2c(C)nnc21` (centres undefined) showed a melting point of 180 to 181 °C.
`COc1c(Cl)ccc(-c2nc(Cl)c3c(ncn3C)n2)c1F` gave a melting point of 184 to 186 °C.
Molecule `Cc1nc(C(F)(F)F)c(C(=O)Nc2ccccc2-c2cc(F)c(F)c(F)c2)s1` has a melting point of 148 to 152 °C.
In the case of `N#Cc1ccc(N2C(=N)C3(CCSCC3)NC2=O)cc1C(F)(F)F`, the melting point is reported as 226 to 227 °C.
With `O=C1N(Cc2cccnc2)c2ccccc2C12COc1cc(F)c(F)cc12` (centres undefined) the melting point was 175 to 177 °C.
Molecule `CCS(=O)(=O)c1cc(C(=O)NCC2CCCN2CC2=CCCCC2)c(OC)cc1N` (centres undefined) has a melting point of 192 °C.
Work on `COc1ccc(S(=O)(=O)N(CC(N)=O)c2ccc(Cl)cc2C(O)c2cc(Cl)ccc2Cl)cc1OC` (centres undefined) yielded a melting point of 132 °C.
`CC(=O)c1cc2ccccc2cn1` showed a melting point of 84.4 to 86.8 °C.
Molecule `O=C(O)CCSCSCC(C(=O)O)c1cccc(OCc2ccc3ccc(Cl)cc3n2)c1` (centres undefined) has a melting point of 142 °C.
Work on `COc1cc(CO)ccc1OCc1nc(-c2cccc([N+](=O)[O-])c2)oc1C` yielded a melting point of 134 to 135 °C.
Molecule `O=C(CBr)c1ccc(Cl)c(S(=O)(=O)Nc2ccccc2)c1` has a melting point of 154 °C.
`CC(C)c1ccc2oc(=O)c(NC(=O)Nc3ccc(F)cc3F)c(-c3ccc(F)cc3)c2c1` gave a melting point of 216 to 217 °C.
For `COC(=O)c1sccc1COC(C)=O`, the melting point was 42 to 43 °C.
With `COc1ccc(N2CCOCC2)c2sc(NC(=O)C[C@H]3CC[C@@H](O)CC3)nc12` the melting point was 212 to 216 °C.
Molecule `Cc1cccc(CN2C(=O)C3(COc4cc5c(cc43)OCCO5)c3ccccc32)n1` (centres undefined) has a melting point of 183 to 185 °C.
Work on `O=C(O)CCCc1cc2nc(C(F)(F)F)ccc2n1S(=O)(=O)c1ccccc1` yielded a melting point of 168 °C.
Molecule `FC(F)(F)c1ccc2c(C3=CCN(CCCOc4cccc5[nH]ccc45)CC3)c[nH]c2c1` has a melting point of 190 to 195 °C.
Work on `NCCC(O)c1ccccc1` (centres undefined) yielded a melting point of 92 to 94 °C.
`COc1ccc2c(c1)CN(Cc1ccccc1)CC(=O)N2` showed a melting point of 134 °C.
Molecule `CN(C)CCCNC(=O)c1ccc(-c2nnc(CSCCCOc3ccccc3)o2)cc1` has a melting point of 77 to 80 °C.
`Cc1c(CC(=O)NC2CCN(Cc3ccc(Cl)c(Cl)c3)CC2)cnn1-c1ccccc1` showed a melting point of 165 °C.
In the case of `Cc1nc([C@@H](Cc2c[nH]c3ccccc23)NC(=O)OC(C)(C)C)oc1C`, the melting point is reported as 138 to 140 °C.
For `c1nc(SCC2CCCCC2)n[nH]1`, the melting point was 74 to 78 °C.
For `CCCCCCCCN[C@@H]1Cc2cc(OC)c(OC)cc2[C@H]1O` (relative stereo), the melting point was 133 to 135 °C.
`CCOC(=O)c1cc(CC)sc1Nc1c(Cl)cccc1[N+](=O)[O-]` gave a melting point of 67 to 70 °C.
Work on `Cc1ccc2c(C(=O)O)cn(C(C)C)c2c1` yielded a melting point of 185 to 186 °C.

Source: a melting point compilation (Tetko et al.; mined from patent text by program, amines drawn as free bases though some values may be those of a salt)
